{"source": "paper PMC6883173", "about": "(Nature, 2019)", "key": {"SpoT1–387": {"target": "SpoT1–387 (Pseudomonas aeruginosa, UniProt Q9HTM0)", "assay": "NDK/PK/LDH coupled NADH assay", "format": "biochemical"}, "PurF^EC": {"target": "PurF^EC (Escherichia coli, UniProt P0AG16)", "assay": "coupled PurD/PK/LDH NADH assay", "format": "biochemical", "settings": "30 °C; 50 nM PurF, 5 mM glutamine, 1 mM pRpp-Mg, 10 mM MgCl2, pH 7.4"}, "crystal structure": {"target": "the molecule itself", "assay": "crystal structure"}}}
{"molecule": "Nc1ncnc2c1ncn2[C@@H]1O[C@H](COP(=O)(O)OP(=O)(O)O)[C@@H](OP(=O)(O)OP(=O)(O)O)[C@H]1O", "note": "[ppApp]", "values": [{"measurement": "NDK/PK/LDH coupled NADH assay (A340)", "setting": "SpoT1–387; 1 mM ppApp, otherwise same", "result": "ppGpp-hydrolyzing domain of SpoT was substantially less active on ppApp than ppGpp in vitro"}, {"measurement": "activity versus concentration", "setting": "PurF^EC", "result": "Changes to the activity of PurF^EC in the presence of indicated concentrations of ppGpp or ppApp"}]}
{"molecule": "Nc1nc2c(ncn2[C@@H]2O[C@H](COP(=O)(O)OP(=O)(O)O)[C@@H](OP(=O)(O)OP(=O)(O)O)[C@H]2O)c(=O)[nH]1", "note": "[ppGpp]", "values": [{"measurement": "NDK/PK/LDH coupled NADH assay (A340)", "setting": "SpoT1–387; 1 mM ppGpp, 10 uM enzyme, 5 mM MnCl2, 2 mM MgCl2, pH 7.4, 30 °C", "result": "ppGpp-hydrolyzing domain of SpoT was substantially less active on ppApp than ppGpp in vitro"}]}
{"molecule": "PurF from E. coli (PurF^EC), glutamine amidophosphoribosyltransferase (enzyme, UniProt P0AG16 1-505, looked up) MCGIVGIAGVMPVNQSIYDALTVLQHRGQDAAGIITIDANNCFRLRKANGLVSDVFEARHMQRLQGNMGIGHVRYPTAGSSSASEAQPFYVNSPYGITLAHNGNLTNAHELRKKLFEEKRRHINTTSDSEILLNIFASELDNFRHYPLEADNIFAAIAATNRLIRGAYACVAMIIGHGMVAFRDPNGIRPLVLGKRDIDENRTEYMVASESVALDTLGFDFLRDVAPGEAIYITEEGQLFTRQCADNPVSNPCLFEYVYFARPDSFIDKISVYSARVNMGTKLGEKIAREWEDLDIDVVIPIPETSCDIALEIARILGKPYRQGFVKNRYVGRTFIMPGQQLRRKSVRRKLNANRAEFRDKNVLLVDDSIVRGTTSEQIIEMAREAGAKKVYLASAAPEIRFPNVYGIDMPSATELIAHGREVDEIRQIIGADGLIFQDLNDLIDAVRAENPDIQQFECSVFNGVYVTKDVDQGYLDFLDTLRNDDAKAVQRQNEVENLEMHNEG", "values": [{"measurement": "stoichiometry N", "setting": "crystal structure", "result": 4}]}
